According to US20100292260A1, “6-VINYL PYRIMIDINE AND PYRIMIDINONE DERIVATIVES AND THE USE THEREOF” (priority 2005, published 2010):
Read-outs that look alike come from different tables or passages of the source.

Tests used:
[1] = biological target: T1, HIV-1 (recombinant) reverse transcriptase (Human immunodeficiency virus type 1 group M subtype B, UniProt P03366); experiment: Enzyme test: reverse transcription reaction in vitro with recombinant RT, wild type; assay type: biochemical; conditions: for IC50: Table 1, recombinant RT wild type, read-out: ID50 WT
T1 construct: 20-50 nM HIV-1 (recombinant) reverse transcriptase
Procedure: (§1) In a final volume of 25 microlitres the following reagents were mixed: 50 mM Tris-HCl pH 7.5, 0.25 mg/ml BSA, 0.5 mM DTT, 20-50 nM HIV-1 (recombinant) reverse transcriptase, nucleotide substrate dTTP marked radioactively (^3H, 4 Ci/mmol) and nucleic acid (poly(rA)/oligo(dT)). The concentrations of dTTP and poly(rA)/oligo(dT) in standard conditions were 5 μM and 0.5 μM, respectively.
(§2) The reaction mixture is incubated 10 min. at 37° C. and 20 μl are removed and deposited on a GF/C Whatman glass fibre filter measuring 25 mm in diameter. The filters are washed 3 times for 5 min. in 5% trichloroacetic acid and once for 5 min. in absolute alcohol. After being dried, the filters are immersed in a scintillating mixture (Packard) and the acid precipitable radioactivity is measured by a scintillation counter for β-emitting isotopes (Beckman).
(§3) The dose-response curves obtained by means of samples of enzyme activity in the presence of increasing doses of inhibitor were analysed according to the equation E(%)=Emax/([…], where E(%) is the fraction of enzyme activity that is measurable in the presence of each concentration of inhibitor, Emax is the activity in the absence of an inhibitor, I is the concentration of inhibitor. The ID50 was calculated by analysing data using the GraphPad Prism graphic interpolation programme (for Macintosh).

MT-4 cells = experiment: Cytotoxicity in mock-infected MT-4 cells (MTT); assay type: cell-based
Procedure: (§4) The biological activity of the compounds was evaluated on lymphoid cell lines MT-4 against the wild strain of HIV-1 NL4-3. The MT-4 cells were briefly infected with the appropriate HIV-1 or the infection was simulated to determine the cytoxicity, in the presence of different concentrations of potential inhibitor compounds. 5 days after the infection a colorimetric method was used that involves using a tetrazole salt (MTT) to evaluate the number of surviving cells. The mutant IRLL98 HIV-1 contains the following mutations in the coding sequence for RT:M41L, D67N, Y181C, M184V, R211K, T215Y (resistance to NRTI) and the mutations K101Q, Y181C, G190A (resistance to NNRTI). The H1V-1 mutants containing multi-NNRTI mutations, K103N or Y188L as mutants were supplied by the Medical Research Council Centralised Facility for AIDS Reagents, Herfordshire, UK.

[2] = test system: wild strain of HIV-1 NL4-3; experiment: Inhibition of viral proliferation on culture cells (MT-4, MTT), wild strain; assay type: cell-based
Procedure: as §4

[3] = Cytotoxicity in mock-infected MT-4 cells (MTT); assay type: cell-based; conditions: human
Procedure: as §4

HIV-1 mutant K103N = experiment: Inhibition of viral proliferation on culture cells (MT-4, MTT), K103N mutant; assay type: cell-based
Procedure: as §4

[4] = biological target: T2, reverse transcriptase containing the mutation Y181I (Human immunodeficiency virus type 1 group M subtype B, UniProt P03366, Y780I); experiment: Enzyme test with mutated reverse transcriptase Y181I; assay type: biochemical, HIV-1
T2 construct: cloning the gene of the mutated RT in an expression vector for prokariotic cells; made in house
Procedure: as §1, §2
(§5) In some experiments, the HIV-1 recombinant reverse transcriptase was substituted by a reverse transcriptase containing the mutations K.103N and Y181I. They were produced by cloning the gene of the mutated RT in an expression vector for prokariotic cells according to the method reported in the literature (Maga G, Amacker M, Ruel N, Hubscher U, Spadari S. Resistance to nevirapine of HIV-1 reverse transcriptase mutants: loss of stabilizing interactions and thermodynamic or steric barriers are induced by different single amino acid substitutions. J Mol Biol. Dec. 19, 1997; 274(5):738-47).
as §3

[5] = biological target: T3, reverse transcriptase containing the mutation K103N (Human immunodeficiency virus type 1 group M subtype B, UniProt P03366, K702N); experiment: Enzyme test with mutated reverse transcriptase K103N; assay type: biochemical, HIV-1
T3 construct: cloning the gene of the mutated RT in an expression vector for prokariotic cells; made in house
Procedure: as §1, §2, §5, §3

HIV-1 mutant Y181L = experiment: Inhibition of viral proliferation on culture cells (MT-4, MTT), Y181L mutant; assay type: cell-based
HIV-1 mutant Y188L = experiment: Inhibition of viral proliferation on culture cells (MT-4, MTT), Y188L mutant; assay type: cell-based; conditions: Table 3; cell test; read-out: Y188L
Procedure: as §4

HIV-1 mutant Y181C = experiment: Inhibition of viral proliferation on culture cells (MT-4, MTT), Y181C mutant; assay type: cell-based; conditions: Table 3; at 56.18
Procedure: as §4

[6] = Table 1, MT-4 cells, read-out: EC50 NL4-3 wt

Compound: C=Cc1cc(N(CC)CC)nc(S(=O)(=O)Cc2ccc(OC)cc2)n1 [8′]
- IC50 [1]: 467 µM
- CC50 (MT-4 cells): 42.9 µM
- EC50 [2, 6]: > 42.9 µM

Compound: C=Cc1cc(N(C)C)nc(S(C)(=O)=O)n1 [Compound 8a]
- increase in activity in relation to the wild type enzyme [1]: 2900 times
- inhibition of the RT at different concentrations of dTTP ([1]; FIG. 1): decreases with the increase of the concentrations of TTP
- apparent affinity (Kapp) of the RT for dTTP ([1]; FIG. 2, different concentrations of 8a): decreases as the concentration of 8a increases
- inhibition of the RT at different concentrations of poly(rA)/oligo(dT) ([1]; FIG. 3): increase of the capacity thereof to inhibit RT
- preferred enzyme form bound ([1]; FIG. 3): preferentially binds to the binary complex of the RT with the nucleic acid
- IC50 [1]: 0.022 µM
- reverse transcriptase ID50 greater than that of MB3B ([1]; compared with MB3B): 3 orders of magnitude
- action mechanism: inhibition of reverse transcriptase ([1]; versus nucleotide substrate): competitive with the nucleotide
- CC50 at 5 days [3]: 110 µM
- EC50 (HIV-1 mutant K103N; Human immunodeficiency virus 1, MT4, read-out: EC50 K103N): > 110 µM
- IC50 [4]: 78 µM
- activity against enzyme with resistance mutation in position 181, in words [4]: significantly active
- IC50 [5]: 28 µM
- activity against enzyme with resistance mutation in position 103, in words [5]: significantly active
- activity in cell tests on wild type, in words [2]: did not show appreciable activity
- EC50 ([2]; Human immunodeficiency virus 1, NL43, MT4, read-out: EC50 NL4-3 wt): > 110 µM
- EC50 (HIV-1 mutant Y181L; Human immunodeficiency virus 1, MT4, read-out: EC50 Y181L): > 110 µM

Compound: C=Cc1cc(N(CC)CC)nc(SCc2ccc(OC)cc2)n1 [6′a]
- CC50 (MT-4 cells): 33 µM
- EC50 (HIV-1 mutant K103N; Table 1, MT-4 cells, read-out: EC50 K103N): 3.6 µM
- EC50 [2, 6]: > 33 µM
- EC50 (HIV-1 mutant Y181L; Table 1, MT-4 cells, read-out: EC50 Y181L): > 35.8 µM

Compound: COc1ccc(C#CCSc2nc(Cc3c(Cl)cccc3Cl)c(C)c(=O)[nH]2)cc1 [Compound 27c]
- CC50 (MT-4 cells; Table 3, read-out: CC50): > 56.2 µM
- EC50 (HIV-1 mutant Y188L): > 56.2 µM
- EC50 (HIV-1 mutant K103N; Table 3, cell test, read-out: K103N): > 56.2 µM
- Y181C, % at given concentration (HIV-1 mutant Y181C): 40% at
- EC50 ([2]; Table 3, cell test, read-out: NLA-3wt): 2.47 µM
